These are literature values, as cited in US12263157B2, “Aldosterone synthase inhibitors for treating chronic kidney disease” (Boehringer Ingelheim International GmbH, priority 2021, dated 2025).

Data set [1] concerns patients with diabetic kidney disease. To be noted: on top of standard of care.
Data set [2] concerns patients with heart failure with reduced ejection fraction. To be noted: overall trial population.
For data set [3], the system named is people with type 2 diabetes.

On to `Cc1ccc([C@@H]2O[C@H](CO)[C@@H](O)[C@H](O)[C@H]2O)cc1Cc1ccc(-c2ccc(F)cc2)s1` [canagliflozin], for which, in data set [1], the “relative risk reduction for the composite endpoint of doubling of serum creatinine, ESRD or renal/CV death” value is 30%.

On to `OC[C@H]1O[C@@H](c2ccc(Cl)c(Cc3ccc(O[C@H]4CCOC4)cc3)c2)[C@H](O)[C@@H](O)[C@@H]1O` [empagliflozin], for which the “reduction of the risk of the exploratory composite renal endpoint (chronic dialysis, kidney transplant, or sustained reduction in eGFR)” value in data set [2] is 50%. In data set [3] (exploratory analysis, 95% CI 0.40-0.75), the “HR for the composite outcome of doubling of creatinine, the need to start kidney replacement therapy, or renal death” value was 0.54. Moreover, the “reduction of the incidence of the composite outcome of doubling of creatinine, the need to start kidney replacement therapy, or renal death” value in data set [3] (exploratory analysis, people with type 2 diabetes) is listed as 46%. In addition, the “risk of hyperkalaemia or acute kidney injury” value in data set [3] (regardless of baseline ACEi or ARB use) is on record as “no evidence of an increased risk”.
